Assay results taken from PubChem BioAssay (NCI).
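A five-concentration, 48-hour dose response in 96-well plates underlies each endpoint, interpolated linearly between surrounding concentrations. At the TGI there is no net growth.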

Columns and labels:
Assay in all cases: DTP human tumour cell line panel, 48 h
MOLT-4 leukemia = system: MOLT-4 leukemia
A549 NSCLC = system: A549 NSCLC
UACC-62 melanoma = system: UACC-62 melanoma
SW-620 colon = system: SW-620 colon
LOX IMVI melanoma = system: LOX IMVI melanoma
NCI-H23 lung = system: NCI-H23 lung
IGROV1 ovarian = system: IGROV1 ovarian
CCRF-CEM leukemia = system: CCRF-CEM leukemia
NCI-H522 lung = system: NCI-H522 lung
SNB-78 CNS = system: SNB-78 CNS
KM12 colon = system: KM12 colon
786-0 renal = system: 786-0 renal
RXF 393 renal = system: RXF 393 renal
SF-539 CNS = system: SF-539 CNS
SN12C renal = system: SN12C renal
NCI-H226 lung = system: NCI-H226 lung
OVCAR-4 ovarian = system: OVCAR-4 ovarian
COLO 205 colon = system: COLO 205 colon
RPMI-8226 leukemia = system: RPMI-8226 leukemia
KM20L2 colon = system: KM20L2 colon
UACC-257 melanoma = system: UACC-257 melanoma
CAKI-1 renal = system: CAKI-1 renal
SK-OV-3 ovarian = system: SK-OV-3 ovarian
A498 renal = system: A498 renal
OVCAR-5 ovarian = system: OVCAR-5 ovarian
EKVX NSCLC = system: EKVX NSCLC
HCT-15 colon = system: HCT-15 colon
TK-10 renal = system: TK-10 renal
K-562 leukemia = system: K-562 leukemia
M14 melanoma = system: M14 melanoma
SK-MEL-28 melanoma = system: SK-MEL-28 melanoma
SF-295 CNS = system: SF-295 CNS
M19-MEL melanoma = system: M19-MEL melanoma
DMS 114 small cell lung = system: DMS 114 small cell lung
SF-268 CNS = system: SF-268 CNS
OVCAR-8 ovarian = system: OVCAR-8 ovarian
UO-31 renal = system: UO-31 renal
HOP-18 NSCLC = system: HOP-18 NSCLC
LXFL 529 NSCLC = system: LXFL 529 NSCLC
SK-MEL-2 melanoma = system: SK-MEL-2 melanoma
DLD-1 colon = system: DLD-1 colon
HT29 colon = system: HT29 colon
OVCAR-3 ovarian = system: OVCAR-3 ovarian
ACHN renal = system: ACHN renal
HOP-62 NSCLC = system: HOP-62 NSCLC
MALME-3M melanoma = system: MALME-3M melanoma
SNB-75 CNS = system: SNB-75 CNS
DMS 273 small cell lung = system: DMS 273 small cell lung
U251 CNS = system: U251 CNS
SNB-19 CNS = system: SNB-19 CNS
HCT-116 colon = system: HCT-116 colon
HCC-2998 colon = system: HCC-2998 colon
NCI-H460 lung = system: NCI-H460 lung
HL-60(TB) leukemia = system: HL-60(TB) leukemia
SK-MEL-5 melanoma = system: SK-MEL-5 melanoma

Molecule `CC(=O)OC12c3ccccc3C1CCCC21OCCCO1` (stereo not given) has a TGI (MOLT-4 leukemia) greater than 100 µM, a TGI (A549 NSCLC) greater than 100 µM and a TGI (UACC-62 melanoma) greater than 100 µM. The TGI (SW-620 colon) was greater than 100 µM, the TGI (LOX IMVI melanoma) was greater than 100 µM and the TGI (NCI-H23 lung) was greater than 100 µM. For the same molecule, the TGI (IGROV1 ovarian) was greater than 100 µM, the TGI (CCRF-CEM leukemia) was greater than 100 µM and the TGI (NCI-H522 lung) was greater than 100 µM. The TGI (SNB-78 CNS) was greater than 100 µM, the TGI (KM12 colon) was greater than 100 µM and the TGI (786-0 renal) was greater than 100 µM. It also gave a TGI (RXF 393 renal) greater than 100 µM, a TGI (SF-539 CNS) greater than 100 µM and a TGI (SN12C renal) greater than 100 µM. The TGI (NCI-H226 lung) was greater than 100 µM, the TGI (OVCAR-4 ovarian) was greater than 100 µM and the TGI (COLO 205 colon) was greater than 100 µM. The TGI (RPMI-8226 leukemia) was greater than 100 µM, the TGI (KM20L2 colon) was greater than 100 µM and the TGI (UACC-257 melanoma) was greater than 100 µM. For the same molecule, the TGI (CAKI-1 renal) was greater than 100 µM, the TGI (SK-OV-3 ovarian) was greater than 100 µM and the TGI (A498 renal) was greater than 100 µM. It also gave a TGI (OVCAR-5 ovarian) greater than 100 µM, a TGI (EKVX NSCLC) greater than 100 µM and a TGI (HCT-15 colon) greater than 100 µM. The TGI (TK-10 renal) was greater than 100 µM, the TGI (K-562 leukemia) was greater than 100 µM and the TGI (M14 melanoma) was greater than 100 µM. It also gave a TGI (SK-MEL-28 melanoma) greater than 100 µM, a TGI (SF-295 CNS) greater than 100 µM and a TGI (M19-MEL melanoma) greater than 100 µM. For the same molecule, the TGI (DMS 114 small cell lung) was greater than 100 µM, the TGI (SF-268 CNS) was greater than 100 µM and the TGI (OVCAR-8 ovarian) was greater than 100 µM. The TGI (UO-31 renal) was greater than 100 µM, the TGI (HOP-18 NSCLC) was greater than 100 µM and the TGI (LXFL 529 NSCLC) was greater than 100 µM. For the same molecule, the TGI (SK-MEL-2 melanoma) was greater than 100 µM, the TGI (DLD-1 colon) was greater than 100 µM and the TGI (HT29 colon) was greater than 100 µM. It also gave a TGI (OVCAR-3 ovarian) greater than 100 µM, a TGI (ACHN renal) greater than 100 µM and a TGI (HOP-62 NSCLC) greater than 100 µM. For the same molecule, the TGI (MALME-3M melanoma) was greater than 100 µM, the TGI (SNB-75 CNS) was greater than 100 µM and the TGI (DMS 273 small cell lung) was greater than 100 µM. The TGI (U251 CNS) was greater than 100 µM, the TGI (SNB-19 CNS) was greater than 100 µM and the TGI (HCT-116 colon) was greater than 100 µM. It also gave a TGI (HCC-2998 colon) greater than 100 µM and a TGI (NCI-H460 lung) greater than 100 µM.
In the case of `CC(=O)Nc1ccc(-c2nnc(SCC(=O)Nc3ccc(Cl)cc3Cl)o2)cc1`, the TGI (MOLT-4 leukemia) is reported as greater than 100 µM, the TGI (A549 NSCLC) is reported as greater than 100 µM and the TGI (HL-60(TB) leukemia) is reported as greater than 100 µM. For the same molecule, the TGI (SW-620 colon) was greater than 100 µM, the TGI (LOX IMVI melanoma) was greater than 100 µM and the TGI (NCI-H23 lung) was greater than 100 µM. The TGI (IGROV1 ovarian) was greater than 100 µM, the TGI (CCRF-CEM leukemia) was greater than 100 µM and the TGI (NCI-H522 lung) was 48.3 µM. It also gave a TGI (SNB-78 CNS) greater than 100 µM, a TGI (KM12 colon) greater than 100 µM and a TGI (786-0 renal) of 44.3 µM. For the same molecule, the TGI (RXF 393 renal) was 66.3 µM, the TGI (SF-539 CNS) was 84.4 µM and the TGI (SN12C renal) was 57.5 µM. For the same molecule, the TGI (NCI-H226 lung) was 99 µM, the TGI (OVCAR-4 ovarian) was greater than 100 µM and the TGI (COLO 205 colon) was 68.3 µM. The TGI (KM20L2 colon) was greater than 100 µM, the TGI (UACC-257 melanoma) was greater than 100 µM and the TGI (CAKI-1 renal) was greater than 100 µM. The TGI (SK-OV-3 ovarian) was greater than 100 µM, the TGI (A498 renal) was greater than 100 µM and the TGI (OVCAR-5 ovarian) was greater than 100 µM. The TGI (HCT-15 colon) was greater than 100 µM, the TGI (TK-10 renal) was greater than 100 µM and the TGI (K-562 leukemia) was greater than 100 µM. For the same molecule, the TGI (M14 melanoma) was greater than 100 µM, the TGI (SK-MEL-28 melanoma) was greater than 100 µM and the TGI (SF-295 CNS) was greater than 100 µM. It also gave a TGI (M19-MEL melanoma) greater than 100 µM, a TGI (SK-MEL-5 melanoma) of 37.4 µM and a TGI (DMS 114 small cell lung) of 38.7 µM. For the same molecule, the TGI (SF-268 CNS) was greater than 100 µM, the TGI (OVCAR-8 ovarian) was greater than 100 µM and the TGI (UO-31 renal) was greater than 100 µM. It also gave a TGI (HOP-18 NSCLC) greater than 100 µM, a TGI (LXFL 529 NSCLC) of 54.7 µM and a TGI (SK-MEL-2 melanoma) greater than 100 µM. It also gave a TGI (DLD-1 colon) greater than 100 µM, a TGI (HT29 colon) greater than 100 µM and a TGI (OVCAR-3 ovarian) of 57.9 µM. The TGI (ACHN renal) was greater than 100 µM, the TGI (HOP-62 NSCLC) was greater than 100 µM and the TGI (MALME-3M melanoma) was 60.3 µM. The TGI (SNB-75 CNS) was 96.6 µM, the TGI (DMS 273 small cell lung) was greater than 100 µM and the TGI (U251 CNS) was 38.7 µM. The TGI (SNB-19 CNS) was 51.9 µM, the TGI (HCT-116 colon) was greater than 100 µM and the TGI (HCC-2998 colon) was greater than 100 µM. It also gave a TGI (NCI-H460 lung) greater than 100 µM.
